Test results taken from US9371351B2, “Glycomimetics as Pseudomonas aeruginosa lectin inhibitors” (priority 2012, dated 2016).
Like-named read-outs stand apart in the source and are kept apart here.

How the values were obtained:
[1] = target: T1, LecB (Pseudomonas aeruginosa, UniProt Q9HYN5); assay: biochemical; type: binding
Description: (§1) In this assay format, the displacement of a fluorescently-labeled reporter ligand bound to the receptor by an inhibitor can be measured by mixing protein, inhibitor and reporter ligand in a given buffer system.

[2] = target: T1, LecB; details: LecB 13 μg/mL and S. cerevisiae
Description: (§2) This agglutination could then be disrupted by addition of inhibitors of LecB.
(§3) For the yeast agglutination, PBS-washed S. cerevisiae strain ss328 was used instead of sheep red blood cells, without papain treatment.

[3] = target: T1, LecB; details: LecB and papain treated sheep erythrocytes
Description: as §2, §3

[4] = target: T1, LecB; assay: biochemical; type: binding; details: for rIC50 (MeMan): IC50 relative to Me-α-Man, below 1 = stronger ligand than Me-α-Man
Experimental: A LecB competition assay was carried out by a novel fluorescence polarization assay developed by the inventors of the present invention. To date, an enzyme-linked lectin assay (ELLA) is widely used for the evaluation in screening of the binding potential of ligands to LecB. This allows the evaluation of molecules over a broad affinity range, including monovalent ligands and oligomeric dendrimers thereof. ELLAs have been developed based on enzyme-linked immunosorbent assays (ELISA). […] Furthermore, the current ELLA protocol involves either a surface immobilization of LecB or a covalent modification of the lectin, which could interfere with ligand binding. Consequently, hits from the ELLA are usually further characterized by direct measurement of the binding process of the ligand with the native, unmodified protein using microcalorimetry, requiring large amounts of protein.
as §1
Similar conditions were applied, but the protein concentration was fixed at 150 nM. […] The resulting sigmoidal data points on the logarithmic inhibitor concentration scale were used to fit a one-site inhibition model and obtain IC50 values.
After addition of the reagents, the microtiter plates were centrifuged at 800 rpm for 1 min at 23° C. and incubated for 6 h at room temperature. The fluorescence was measured on a Tecan […] F500 plate reader (Tecan Austria GmbH) with excitation filters at 485 nm and emission filters at 535 nm in black 384-well microtiter plates (Greiner Bio-One). The G-factor was set on 0.92154 and the gain to 80. The measured intensities were reduced by buffer values. The data were analyzed with Graphpad Prism 5 and fitted according to the four parameter variable slope model.

[5] = target: T1, LecB; assay: Binding thermodynamics to LecB by isothermal calorimetry; details: average of two measurements
[6] = target: T1, LecB; assay: biochemical; type: binding; details: for kd: SPR, 1:1 binding model; for kon: pH 7.4, read-out: ka
[7] = target: T1, LecB; details: known value, background; cited from earlier work

T1 sequence (Q9HYN5 entry or part of it): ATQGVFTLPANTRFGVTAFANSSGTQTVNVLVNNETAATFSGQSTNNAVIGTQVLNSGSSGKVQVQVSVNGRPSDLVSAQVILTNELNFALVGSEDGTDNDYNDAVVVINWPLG

| SMILES | rIC50 (MeMan) [4] | IC50 [4] [µM] | also measured |
| --- | --- | --- | --- |
| CC1OC(OCCNC(=S)Nc2ccc(-c3c4ccc(=O)cc-4oc4cc(O)ccc34)c(C(=O)O)c2)C(O)C(O)C1O (mixture of isomers) [reporter ligand 3, N-(fluorescein-5-yl)-N′-(α-L-fucopyranosylethylen)-thiocarbamide] |  |  | EC50 [1]: 697 nM |
| CO[C@H]1O[C@H](CNC(=O)/C=C/c2ccccc2)[C@@H](O)[C@H](O)[C@@H]1O [11a, Methyl 6-(cinnamido)-6-deoxy-α-D-mannopyranoside] | 0.3 |  | inhibition of agglutination at (concentration) [2]: 197 µM; inhibited agglutination at (concentration) [3]: 23 µM; TΔS [5]: 3.4 kcal/mol; ΔH [5]: -2.9 kcal/mol |
| CO[C@H]1O[C@H](CNC(=O)/C=C/c2ccc(Cl)cc2)[C@@H](O)[C@H](O)[C@@H]1O [11l, Methyl 6-(4-chlorocinnamido)-6-deoxy-α-D-mannopyranoside] | 0.22 | 48.4 |  |
| CO[C@H]1O[C@H](CNC(=O)/C=C/c2ccc(Cl)cc2Cl)[C@@H](O)[C@H](O)[C@@H]1O [11m, Methyl 6-(2,4-dichlorocinnamido)-6-deoxy-α-D-mannopyranoside] | 0.32 | 71 |  |
| COc1ccc(/C=C/C(=O)NC[C@H]2O[C@H](OC)[C@@H](O)[C@@H](O)[C@@H]2O)cc1OC [11n, Methyl 6-(3,4-dimethoxycinnamido)-6-deoxy-α-D-mannopyranoside] | 0.13 |  | kd [6]: 0.0013 s⁻¹ |
| CO[C@H]1O[C@H](CNC(=O)/C=C/c2ccc3c(c2)OCO3)[C@@H](O)[C@H](O)[C@@H]1O [11o, Methyl 6-(3,4-methylenedioxycinnamido)-6-deoxy-α-D-mannopyranoside] | 0.15 | 31.8 |  |
| CO[C@H]1O[C@H](CNC(=O)Cc2ccccc2)[C@@H](O)[C@H](O)[C@@H]1O [11q, Methyl 6-(phenylacetamido)-6-deoxy-α-D-mannopyranoside] | 0.93 | 205 |  |
| CO[C@H]1O[C@H](CNC(=O)c2ccc([N+](=O)[O-])cc2)[C@@H](O)[C@H](O)[C@@H]1O [11r, Methyl 6-(4-nitrobenzoylamido)-6-deoxy-α-D-mannopyranoside] | 0.94 | 206 |  |
| CO[C@H]1O[C@H](CNC(=O)c2ccccc2Cl)[C@@H](O)[C@H](O)[C@@H]1O [11s, Methyl 6-(2-chlorobenzoylamido)-6-deoxy-α-D-mannopyranoside] | 1.09 | 239 |  |
| CO[C@H]1O[C@H](CNC(=O)c2ccc3ccccc3c2)[C@@H](O)[C@H](O)[C@@H]1O [11t, Methyl 6-(2-naphtoylamido)-6-deoxy-α-D-mannopyranoside] | 0.54 | 118 |  |
| Cc1cc(C)c(S(=O)(=O)NC[C@H]2OC(C)[C@@H](O)C(O)C2O)c(C)c1 (stereo partly drawn) [13b, N-(6S-Methyl-3R,4R,5R-trihydroxy-tetrahydropyranosyl-2R-methyl)-2,4,6-trimethylphenyl sulfonamide] |  |  | kd [6]: 0.00041 s⁻¹; kon [6]: 1260 M⁻¹ s⁻¹ |
| CC(=O)N[C@H]1C(O)O[C@H](CO)[C@@H](O[C@@H]2O[C@@H](C)[C@@H](O)[C@@H](O)[C@@H]2O)[C@@H]1O[C@@H]1O[C@H](CO)[C@H](O)[C@H](O)[C@H]1O (stereo partly drawn) [Lewis^a trisaccharide, α-Fuc1-4(βGal1-3)-GlcNAc] |  |  | Kd [7]: 210 nM |
| CO[C@H]1O[C@H](CO)[C@@H](O)[C@H](O)[C@@H]1O [Me-α-D-Man, methyl α-D-mannopyranoside, reference compound] |  |  | inhibition of agglutination at (concentration) [2]: 444 µM; inhibited agglutination at (concentration) [3]: 113 µM; TΔS [5]: 2.6 kcal/mol; ΔH [5]: -3.2 kcal/mol |
| CC1OC(CNC(=O)/C=C/c2ccccc2)C(O)C(O)[C@@H]1O (stereo partly drawn) [compound 13, N-(6S-Methyl-3R,4R,5R-trihydroxy-tetrahydropyranosyl-2R-methyl)-cinnamide] | 0.1 |  | kd [6]: 0.00041 s⁻¹; kon [6]: 255 M⁻¹ s⁻¹ |
| COC1O[C@H](CNS(=O)(=O)/C=C/c2ccccc2)C(O)C(O)[C@@H]1O (stereo partly drawn) [compound 14, Methyl 6-(trans-β-styrenesulfonylamido)-6-deoxy-α-D-mannopyranoside] |  | 79 |  |
| CC1O[C@H](CNS(=O)(=O)/C=C/c2ccccc2)C(O)C(O)[C@@H]1O (stereo partly drawn) [compound 15, N-(6S-Methyl-3R,4R,5R-trihydroxy-tetrahydropyranosyl-2R-methyl)-trans-β-styrene sulfonamide] |  | 12.7 |  |
| O=C1OC2(c3ccc(O)cc3Oc3cc(O)ccc32)c2ccc(NC(=S)NCCO[C@H]3O[C@H](CO)[C@@H](O)[C@H](O)[C@@H]3O)cc21 [reporter ligand 5, N-(fluorescein-5-yl)-N′-(α-D-mannopyranosylethylen)-thiocarbamide] |  |  | EC50 ([1]; titration of reporter ligand with LecB, fluorescence polarization, read-out: EC50): > 16000 nM |
